Measurements published in paper PMC5218480 (PLoS ONE, 2017).

Test system: MV-4-11 cells
Assay: Gene expression microarray analysis (Affymetrix PrimeView) and GSEA
Format: cell-based, human
Design: RFU PODN (11730768_x_at) / Fold change /veh PODN (11730768_x_at) / RFU LINC00158 (11744669_a_at) / Fold change /veh LINC00158 (11744669_a_at) / RFU DUSP10 (11751237_a_at) / Fold change /veh DUSP10 (11751237_a_at) / RFU ID3 (11757404_x_at) / Fold change /veh ID3 (11757404_x_at) / RFU PLEKHG5 (11737974_s_at) / Fold change /veh PLEKHG5 (11737974_s_at) / RFU LRRC4B (11730491_at) / Fold change /veh LRRC4B (11730491_at) / RFU GIMAP4 (11747438_a_at) / Fold change /veh GIMAP4 (11747438_a_at) / RFU KRT8 (11758183_x_at) / Fold change /veh KRT8 (11758183_x_at) / RFU CNN1 (11734310_a_at) / Fold change /veh CNN1 (11734310_a_at) / RFU VPS37D (11726825_at) / Fold change /veh VPS37D (11726825_at) / RFU C10orf10 (11716522_x_at) / Fold change /veh C10orf10 (11716522_x_at) / RFU KIR2DL2 /// KIR2DL4 /// KIR2DL5A /// KIR2DL5B /// KIR2DS1 /// KIR2DS2 /// KIR2DS3 /// KIR2DS4 /// KIR3DL3 /// KIR3DL3 /// KIR3DS1 (11738374_at) / Fold change /veh KIR2DL2 /// KIR2DL4 /// KIR2DL5A /// KIR2DL5B /// KIR2DS1 /// KIR2DS2 /// KIR2DS3 /// KIR2DS4 /// KIR3DL3 /// KIR3DL3 /// KIR3DS1 (11738374_at) / RFU C1QL1 (11718748_at) / Fold change /veh C1QL1 (11718748_at) / RFU TMPRSS4 (11747572_a_at) / Fold change /veh TMPRSS4 (11747572_a_at) / RFU HAMP (11756126_x_at) / Fold change /veh HAMP (11756126_x_at) / RFU RNFT2 (11725882_a_at) / Fold change /veh RNFT2 (11725882_a_at) / RFU NR4A2 (11747474_a_at) / Fold change /veh NR4A2 (11747474_a_at) / RFU ABCC12 (11746883_a_at) / Fold change /veh ABCC12 (11746883_a_at) / RFU TMEM136 (11760407_x_at) / Fold change /veh TMEM136 (11760407_x_at) / RFU CLDN22 /// WWC2 (11732394_at) / Fold change /veh CLDN22 /// WWC2 (11732394_at) / RFU HLA-DPB1 (11760878_x_at) / Fold change /veh HLA-DPB1 (11760878_x_at) / RFU SPINT1 (11716480_a_at) / Fold change /veh SPINT1 (11716480_a_at) / RFU GAP43 (11754022_s_at) / Fold change /veh GAP43 (11754022_s_at) / RFU A4GNT (11735810_at) / Fold change /veh A4GNT (11735810_at) / RFU PRB3 (11715151_x_at) / Fold change /veh PRB3 (11715151_x_at) / RFU TUBB4B (11761932_at) / Fold change /veh TUBB4B (11761932_at) / RFU CAPN14 (11732068_a_at) / Fold change /veh CAPN14 (11732068_a_at) / RFU TMCC2 (11721928_a_at) / Fold change /veh TMCC2 (11721928_a_at) / RFU IRGQ (11745062_a_at) / Fold change /veh IRGQ (11745062_a_at) / RFU FAM174B (11720279_a_at) / Fold change /veh FAM174B (11720279_a_at) / RFU TMPRSS4 (11748680_a_at) / Fold change /veh TMPRSS4 (11748680_a_at) / RFU FAM212B (11763350_a_at) / Fold change /veh FAM212B (11763350_a_at) / RFU PLEKHG5 (11743358_a_at) / Fold change /veh PLEKHG5 (11743358_a_at) / RFU ZSCAN30 (11745921_a_at) / Fold change /veh ZSCAN30 (11745921_a_at) / RFU CMKLR1 (11741424_a_at) / Fold change /veh CMKLR1 (11741424_a_at) / RFU LOC101060620 /// MAPK8IP1 (11723275_at) / Fold change /veh LOC101060620 /// MAPK8IP1 (11723275_at) / RFU SPTSSB (11747773_x_at) / Fold change /veh SPTSSB (11747773_x_at) / RFU PRSS12 (11739890_at) / Fold change /veh PRSS12 (11739890_at) / RFU BIN1 (11741810_x_at) / Fold change /veh BIN1 (11741810_x_at) / RFU WNT11 (11732464_a_at) / Fold change /veh WNT11 (11732464_a_at) / RFU C10orf10 (11716521_a_at) / Fold change /veh C10orf10 (11716521_a_at) / RFU C5orf56 (11738089_at) / Fold change /veh C5orf56 (11738089_at) / RFU CYB561 (11721691_x_at) / Fold change /veh CYB561 (11721691_x_at) / RFU ANKRD19P (11752326_a_at) / Fold change /veh ANKRD19P (11752326_a_at) / RFU OR2T12 /// OR2T33 /// OR2T8 (11738714_s_at) / Fold change /veh OR2T12 /// OR2T33 /// OR2T8 (11738714_s_at) / RFU VCAN (11748164_a_at) / Fold change /veh VCAN (11748164_a_at) / RFU JSRP1 (11732532_at) / Fold change /veh JSRP1 (11732532_at) / RFU KRTAP10-11 (11738290_x_at) / Fold change /veh KRTAP10-11 (11738290_x_at) / RFU MYO3A (11730013_a_at) / Fold change /veh MYO3A (11730013_a_at) / RFU EBF3 (11725865_a_at) / Fold change /veh EBF3 (11725865_a_at) / RFU CAMK2N1 (11719241_x_at) / Fold change /veh CAMK2N1 (11719241_x_at) / RFU C5orf56 (11738088_a_at) / Fold change /veh C5orf56 (11738088_a_at) / RFU OLFML3 (11715873_a_at) / Fold change /veh OLFML3 (11715873_a_at) / RFU LOC100653217 /// NTM (11731650_a_at) / Fold change /veh LOC100653217 /// NTM (11731650_a_at) / RFU MAPK11 (11762145_a_at) / Fold change /veh MAPK11 (11762145_a_at) / RFU FIZ1 (11724087_x_at) / Fold change /veh FIZ1 (11724087_x_at) / RFU OASL (11726364_x_at) / Fold change /veh OASL (11726364_x_at) / RFU SOX15 (11748057_x_at) / Fold change /veh SOX15 (11748057_x_at) / RFU CD79A (11719716_a_at) / Fold change /veh CD79A (11719716_a_at) / RFU HIST1H1D (11736915_at) / Fold change /veh HIST1H1D (11736915_at) / RFU CASKIN2 (11723855_a_at) / Fold change /veh CASKIN2 (11723855_a_at) / RFU LOC730098 (11760151_x_at) / Fold change /veh LOC730098 (11760151_x_at) / RFU OR4N2 (11742367_at) / Fold change /veh OR4N2 (11742367_at) / RFU PRRT2 (11749266_a_at) / Fold change /veh PRRT2 (11749266_a_at) / RFU SNX32 (11753110_a_at) / Fold change /veh SNX32 (11753110_a_at) / RFU CDHR5 (11726645_a_at) / Fold change /veh CDHR5 (11726645_a_at) / RFU RCAN1 (11760418_a_at) / Fold change /veh RCAN1 (11760418_a_at) / RFU FAM167A (11723789_a_at) / Fold change /veh FAM167A (11723789_a_at) / RFU FAM26E (11764081_at) / Fold change /veh FAM26E (11764081_at) / RFU ISYNA1 (11749810_s_at) / Fold change /veh ISYNA1 (11749810_s_at) / RFU ACY1 (11761880_at) / Fold change /veh ACY1 (11761880_at) / RFU 11764098_at / Fold change /veh 11764098_at / RFU SAMD14 (11745864_x_at) / Fold change /veh SAMD14 (11745864_x_at) / RFU NPB (11741838_a_at) / Fold change /veh NPB (11741838_a_at) / RFU TMPRSS6 (11731388_a_at) / Fold change /veh TMPRSS6 (11731388_a_at) / RFU KRTAP10-2 (11738614_at) / Fold change /veh KRTAP10-2 (11738614_at) / RFU ARHGAP8 /// PRR5-ARHGAP8 (11727945_x_at) / Fold change /veh ARHGAP8 /// PRR5-ARHGAP8 (11727945_x_at) / RFU KRTAP5-7 /// NADSYN1 (11734609_at) / Fold change /veh KRTAP5-7 /// NADSYN1 (11734609_at) / RFU RASL12 (11751679_a_at) / Fold change /veh RASL12 (11751679_a_at) / RFU CDKN2B (11736163_a_at) / Fold change /veh CDKN2B (11736163_a_at) / RFU PRF1 (11729649_at) / Fold change /veh PRF1 (11729649_at) / RFU, ZNF638 /// ZNF638-IT1 / Fold change vs veh, ZNF638 /// ZNF638-IT1 / RFU, PANK3 / Fold change vs veh, PANK3 / RFU, SH3YL1 / Fold change vs veh, SH3YL1 / RFU, ZEB2 / Fold change vs veh, ZEB2 / RFU, NRIP1 / Fold change vs veh, NRIP1 / RFU, PTTG1IP / Fold change vs veh, PTTG1IP / RFU, CAPN2 / Fold change vs veh, CAPN2 / RFU, MED14 / Fold change vs veh, MED14 / RFU, SNORA58 / Fold change vs veh, SNORA58 / RFU, C1orf63 / Fold change vs veh, C1orf63 / RFU, LRRFIP1 / Fold change vs veh, LRRFIP1 / RFU, NDUFAF7 / Fold change vs veh, NDUFAF7 / RFU, SLC12A2 / Fold change vs veh, SLC12A2 / RFU, IBTK / Fold change vs veh, IBTK / RFU, ESF1 / Fold change vs veh, ESF1 / Fold change vs veh, TMEM50B / RFU, TAOK1 / Fold change vs veh, TAOK1 / RFU, ACBD3 / Fold change vs veh, ACBD3 / RFU, TMA16 / Fold change vs veh, TMA16 / RFU, RWDD3 / Fold change vs veh, RWDD3 / RFU, BCAT1 / Fold change vs veh, BCAT1 / RFU, EDEM3 / Fold change vs veh, EDEM3 / RFU, TMEM33 / Fold change vs veh, TMEM33 / RFU, WDR75 / Fold change vs veh, WDR75 / RFU, AHCTF1 / Fold change vs veh, AHCTF1 / RFU, TFRC / Fold change vs veh, TFRC / RFU, ZDHHC17 / Fold change vs veh, ZDHHC17 / RFU, NOM1 / Fold change vs veh, NOM1 / RFU, ARL8B / Fold change vs veh, ARL8B / RFU, ZBTB11 / Fold change vs veh, ZBTB11 / RFU, TAMM41 / Fold change vs veh, TAMM41 / RFU, KIAA1704 /// LOC100996395 / Fold change vs veh, KIAA1704 /// LOC100996395 / RFU, ING1 / Fold change vs veh, ING1 / RFU, TRMT61B / Fold change vs veh, TRMT61B / RFU, FUBP3 / Fold change vs veh, FUBP3 / RFU, TP53 / Fold change vs veh, TP53 / RFU, TNKS2 / Fold change vs veh, TNKS2 / RFU, ZFP14 / Fold change vs veh, ZFP14 / RFU, ACTR2 / Fold change vs veh, ACTR2 / RFU, PPP3R1 / Fold change vs veh, PPP3R1 / RFU, PIK3R1 / Fold change vs veh, PIK3R1 / RFU, HNRNPA1 / Fold change vs veh, HNRNPA1 / RFU, RNF170 / Fold change vs veh, RNF170 / RFU, ZNF28 / Fold change vs veh, ZNF28 / RFU, RNGTT / Fold change vs veh, RNGTT / RFU, OGT / Fold change vs veh, OGT / RFU, BRD1 / Fold change vs veh, BRD1 / RFU, MARS / Fold change vs veh, MARS / RFU, ZNF655 / Fold change vs veh, ZNF655 / RFU, FAHD1 / Fold change vs veh, FAHD1 / RFU, BDP1 / Fold change vs veh, BDP1 / RFU, LRRCC1 / Fold change vs veh, LRRCC1 / RFU, ARID1A / Fold change vs veh, ARID1A / RFU, ZNF146 / Fold change vs veh, ZNF146 / RFU, ZNF330 / Fold change vs veh, ZNF330 / RFU, GPN3 / Fold change vs veh, GPN3 / RFU, C9orf123 / Fold change vs veh, C9orf123 / RFU, N4BP2L2 / Fold change vs veh, N4BP2L2 / RFU, ARFIP1 / Fold change vs veh, ARFIP1 / RFU, FAM179B / Fold change vs veh, FAM179B / RFU, BCL10 / Fold change vs veh, BCL10 / RFU, UHRF1BP1L / Fold change vs veh, UHRF1BP1L / RFU, BET1 / Fold change vs veh, BET1 / RFU, CNOT2 / Fold change vs veh, CNOT2 / RFU, ZNF268 / Fold change vs veh, ZNF268 / Fold change vs veh, ZNF507 / RFU, DGCR2 / Fold change vs veh, DGCR2 / RFU, WDSUB1 / Fold change vs veh, WDSUB1 / Fold change vs veh, HSP90B1 /// MIR3652 / RFU, ADSS / Fold change vs veh, ADSS / RFU, GK / Fold change vs veh, GK / RFU, ZNF148 / Fold change vs veh, ZNF148 / RFU, TAF9 / Fold change vs veh, TAF9 / RFU, SLC1A5 / Fold change vs veh, SLC1A5 / RFU, SLMO2 / Fold change vs veh, SLMO2 / RFU, ABCC4 / Fold change vs veh, ABCC4 / RFU, LOC101060439 /// RAP1B / Fold change vs veh, LOC101060439 /// RAP1B / RFU, RFX7 / Fold change vs veh, RFX7 / RFU, GTPBP10 / Fold change vs veh, GTPBP10 / RFU, CNEP1R1 / Fold change vs veh, CNEP1R1 / RFU, BIVM-ERCC5 /// ERCC5 / Fold change vs veh, BIVM-ERCC5 /// ERCC5 / RFU, ILF3 / Fold change vs veh, ILF3 / RFU 11762660_at / Fold change /veh 11762660_at / RFU VCAN (11757783_s_at) / Fold change /veh VCAN (11757783_s_at) / RFU DDX43 (11728927_at) / Fold change /veh DDX43 (11728927_at) / RFU KRT8 (11758188_x_at) / Fold change /veh KRT8 (11758188_x_at) / RFU NKD1 (11759106_at) / Fold change /veh NKD1 (11759106_at) / RFU SRD5A1 (11742802_a_at) / Fold change /veh SRD5A1 (11742802_a_at) / RFU TPSAB1 /// TPSB2 (11721975_s_at) / Fold change /veh TPSAB1 /// TPSB2 (11721975_s_at) / RFU GSTM3 (11746129_a_at) / Fold change /veh GSTM3 (11746129_a_at) / RFU IL23R (11737362_x_at) / Fold change /veh IL23R (11737362_x_at) / RFU TMEM51 (11727254_a_at) / Fold change /veh TMEM51 (11727254_a_at) / RFU PIWIL2 (11732686_x_at) / Fold change /veh PIWIL2 (11732686_x_at) / RFU ORM1 (11744905_x_at) / Fold change /veh ORM1 (11744905_x_at) / RFU CCDC152 (11743942_at) / Fold change /veh CCDC152 (11743942_at) / RFU ECM1 (11717891_a_at) / Fold change /veh ECM1 (11717891_a_at) / RFU IL23R (11748794_a_at) / Fold change /veh IL23R (11748794_a_at) / RFU TNFAIP8L3 (11732012_x_at) / Fold change /veh TNFAIP8L3 (11732012_x_at) / RFU MBOAT4 (11741988_at) / Fold change /veh MBOAT4 (11741988_at) / RFU 11764193_at / Fold change /veh 11764193_at / RFU TMEM53 (11763286_at) / Fold change /veh TMEM53 (11763286_at) / RFU MAGEB2 (11727129_at) / Fold change /veh MAGEB2 (11727129_at) / RFU TMEM200A (11744735_a_at) / Fold change /veh TMEM200A (11744735_a_at) / RFU CCDC152 (11751479_a_at) / Fold change /veh CCDC152 (11751479_a_at) / RFU FAM211A (11726209_a_at) / Fold change /veh FAM211A (11726209_a_at) / RFU RGS16 (11746705_a_at) / Fold change /veh RGS16 (11746705_a_at) / RFU VCAN (11755009_s_at) / Fold change /veh VCAN (11755009_s_at) / RFU RHOB (11743442_s_at) / Fold change /veh RHOB (11743442_s_at) / RFU RGS16 (11720943_a_at) / Fold change /veh RGS16 (11720943_a_at) / RFU RGS16 (11720944_at) / Fold change /veh RGS16 (11720944_at) / RFU, VPS4B / Fold change vs veh, VPS4B / RFU, CREB1 / Fold change vs veh, CREB1 / RFU, DNAJC13 / Fold change vs veh, DNAJC13 / RFU, GNAQ / Fold change vs veh, GNAQ / RFU, CDK5R1 / Fold change vs veh, CDK5R1 / RFU, ZRANB3 / Fold change vs veh, ZRANB3 / RFU, CUL4A / Fold change vs veh, CUL4A / RFU, CCNY / Fold change vs veh, CCNY / RFU, UFL1 / Fold change vs veh, UFL1 / RFU, COG3 / Fold change vs veh, COG3 / RFU, DIAPH2 / Fold change vs veh, DIAPH2 / RFU, SKA2 / Fold change vs veh, SKA2 / RFU, AFF3 / Fold change vs veh, AFF3 / RFU, LMF1 / Fold change vs veh, LMF1 / RFU, IPO11 / Fold change vs veh, IPO11 / RFU, DFFB / Fold change vs veh, DFFB / RFU, FOXP1 / Fold change vs veh, FOXP1 / RFU, CARD8 / Fold change vs veh, CARD8 / RFU, STRN3 / Fold change vs veh, STRN3 / RFU, ADK / Fold change vs veh, ADK / RFU, RASSF2 / Fold change vs veh, RASSF2 / RFU, WIPF1 / Fold change vs veh, WIPF1 / RFU, LARP1B / Fold change vs veh, LARP1B / RFU, RASA1 / Fold change vs veh, RASA1 / RFU, RB1 / Fold change vs veh, RB1 / RFU, PPFIA1 / Fold change vs veh, PPFIA1 / RFU, MAT2A / Fold change vs veh, MAT2A / RFU, CCT5 / Fold change vs veh, CCT5 / RFU, WDR92 / Fold change vs veh, WDR92 / RFU, CUX1 / Fold change vs veh, CUX1 / RFU, TTC7A / Fold change vs veh, TTC7A / RFU, TMEM135 / Fold change vs veh, TMEM135 / RFU, DEPTOR / Fold change vs veh, DEPTOR / RFU, CPM / Fold change vs veh, CPM / RFU, DNAJB6 / Fold change vs veh, DNAJB6 / RFU, CACNA2D3 / Fold change vs veh, CACNA2D3 / RFU, DTX4 / Fold change vs veh, DTX4 / RFU, TFCP2 / Fold change vs veh, TFCP2 / RFU, GMCL1 /// GMCL1P1 / Fold change vs veh, GMCL1 /// GMCL1P1 / RFU, AEBP2 / Fold change vs veh, AEBP2 / RFU, SNHG1 /// SNORD22 /// SNORD25 /// SNORD26 /// SNORD27 /// SNORD28 /// SNORD29 /// SNORD31 / Fold change vs veh, SNHG1 /// SNORD22 /// SNORD25 /// SNORD26 /// SNORD27 /// SNORD28 /// SNORD29 /// SNORD31 / Fold change (Aza/veh), C12orf56 (ProbeSet 11735607_a_at) / Fold change (ACY-1035/veh), C12orf56 (ProbeSet 11735607_a_at) / Fold change (Aza/veh), FGFR1OP (ProbeSet 11751329_s_at) / Fold change (ACY-1035/veh), FGFR1OP (ProbeSet 11751329_s_at) / Fold change (Aza/veh), VPS36 (ProbeSet 11739960_a_at) / Fold change (ACY-1035/veh), VPS36 (ProbeSet 11739960_a_at) / RFU SYPL1 (11715823_x_at) / Fold change /veh SYPL1 (11715823_x_at) / RFU IGFBP7 (11715501_s_at) / Fold change /veh IGFBP7 (11715501_s_at) / RFU REEP3 (11722064_at) / Fold change /veh REEP3 (11722064_at) / RFU IGLL1 (11728026_x_at) / Fold change /veh IGLL1 (11728026_x_at): dose or concentration left out as unconfirmed
Settings: ProbeSet 11758919_x_at; LIST D

## Nc1ncn([C@@H]2O[C@H](CO)[C@@H](O)[C@H]2O)c(=O)n1 [azacitidine]
  RFU, TFCP2: 66.08 RFU
